Consider one molecule from patent publication US20260276656A1, “GUT MICROBIOTA-RELATED METHODS FOR TREATING DEMENTIA AND AGE-DEPENDENT COGNITIVE DECLINE” (Albert-Ludwigs-Universitat Freiburg, priority 2019, published 2026).

The test system of one series is C57BL/6J mice. The series is described as follows: Novel object recognition (NOR) test (recognition memory). The conditions noted are these: for recognition memory (Novel Object Recognition test): systemic (intraperitoneal) injection, FIG. 11 right; for NOR test performance: 5 mg/kg i.p. 1 h before. In kind it is in vivo, mouse. The method, then: In order to acutely deplete the gut microbiota, 15-16 months old SPF males were treated via oral gavage with a mixture of antibiotics (ABX), containing Cefoxitin (Santa Cruz Biotechnology), Gentamicin (Sigma-Aldrich) Metronidazole (Sigma-Aldrich), and Vancomycin (Hikma-pharma), each 10 mg/kg in sterile 1×PBS, for three consecutive days. On the fourth day, the mice were treated with one dose of Clindamycin hydrochloride (33.3 mg/kg) (Sigma-Aldrich). Fecal microbiota transplantations (FMTs) were started 24 h later. To deplete csf1-dependent cells in vivo, including microglia, mice were provided with CSF1R-inhibitor PLX5622 (Plexxicon Inc.) mixed into AIN-76A standard chow at 1200 mg/kg (Research Diets Inc.) ad libitum. Respective controls received AIN-76A standard chow. Mice were injected with 5 mg/kg δ-valerobetaine (MCAT, Germany) 1 h before behavioral testing.
For microbiota depletion studies, SPF mice were treated with 1 mg/ml of ampicillin (Auromedics), neomycin sulfate (Fisher), streptomycin (Sigma) and 0.5 mg/ml of vancomycin (Sagent) in the drinking water for 4-5 weeks (Khosravi et al., 2014). These mice were recolonized via FMT, which was achieved by oral gavage of a faecal slurry. Recipient mice had the food removed from the cage for 2 h prior to FMT. The faecal slurry was obtained by pooling faecal pellets from 8-14 donor mice. The pellets were weighed and resuspended by vortexing for 1 min in 1 mL PBS per 300 mg of faeces. After pelleting larger particles by centrifugation at 500×g for 5 min, the supernatant was collected for FMT. Each recipient mouse received 150 μl of faecal slurry by oral gavage. The remaining slurry was stored at −80° C. for 16S rRNA sequencing. Following FMT, the cages of recipient mice were replenished with dirty bedding and fresh faecal pellets from donor mice once and twice a week, respectively. Faecal pellets for 16S rRNA sequencing were collected the day before FMT and at the end of the experiment and were stored at −80° C. for DNA extraction. For re-colonization of ABX treated mice, FMTs from 8 weeks old or 15-16 months old males were undergone. Fresh fecal pellets are collected under a sterile hood and directly thoroughly homogenized in 0.1% L-Cysteine hydrochloride monohydrate in 1×PBS in order to maintain anaerobic microbes. The homogenates were spun down for 1 min, 200 g at 4° C. and the turbid supernatant was used to orally and rectally gavage the recipient mice. The FMT was performed twice 72 h apart.
NNN-trimethyl-5-aminovalerate was dissolved in 0.9% NaCl and administered i.p. at a dose of 200 mg/kg in a volume of 10 ml/kg. As control the vehicle NaCl was injected.
Mice were tested 40 min after drug- or vehicle injection or 4 weeks after FMT. We first performed the training run for the Novel-object recognition test, followed by the T maze test and then 6 h after the training session mice were tested in the Novel object recognition test. Spatial working memory was tested using the continuous spontaneous alternation task in a T-maze as described previously (Spowart-Manning, L. et al). Briefly, animals were set into the base of a T-maze and allowed to explore a randomly assigned T-maze arm until it returned to the base arm. Subsequently, the blocked arm was opened, and the animal was allowed to explore the complete maze. Once one arm of the T-maze was entered, the other arm was blocked until the animal returned to the base arm. Then, the exit of the base arm was blocked for 5 s and the animal was allowed to explore the maze again. The experiment was stopped after 14 free choice arm entries. Arm entries were scored as alternations if an animal chose the opposing arm compared to the arm visited immediately prior to the scored instance. The Novel Object Recognition (NOR) task was applied to evaluate recognition memory as published previously (Antunes, M. & Biala, G. et al). During the habituation phase, each mouse was allowed to explore two similar objects within a total exploration time of 20 s. […]

Series [1] can be described thus: Untargeted metabolomics of blood serum and brain tissue. The settings on record: inferred from similarly elevated levels in serum and brain tissue of old mice. In kind it is in vivo, mouse. As to the method:
Blood serum and hippocampal brain tissue was removed from young and old mice and snap-frozen in liquid nitrogen after determining the weight. Sample analysis was conducted by Metabolon, Inc. using a proprietary series of organic and aqueous extractions to remove the protein content while allowing maximum recovery of small molecules. The extract was divided into two parts: one for analysis by LC and the other for analysis by GC. TurboVap® (Zymark) was used to remove the organic solvent content. Each sample was then frozen and dried under vacuum. The exact methodology can be provided by Metabolon, Inc. as their standard protocol for untargeted mass spectrometry metabolomics.
Samples were snap-frozen upon collection and stored at −80° C. until further processing at Metabolon, Inc. 52. Briefly, recovery standards were added prior to the first step in the extraction process for quality control purposes. […] Three types of controls were analyzed in concert with the experimental samples: samples generated from a pool of spike-in controls extensively characterized by Metabolon, Inc. or generated from a small portion of each experimental sample of interest served as technical replicate throughout the data set; extracted water samples served as process blanks; and a cocktail of standards spiked into every analyzed sample allowed instrument performance monitoring. […]

In the case of `C[N+](C)(C)CCCCC(=O)[O-]` [NNN-trimethyl-5-aminovalerate, 5-(trimethylammonio) pentanoate], in the series on C57BL/6J mice (old mice (15-16 months) +ABX+yFMT, 5 mg/kg i.p. 1 h before testing, FIG. 10G-H), the “NOR: improvement in learning and memory after FMT from young mice” value was “abolished”. The “recognition memory (Novel Object Recognition test)” value is listed as “no additional impairing effects” in the series on C57BL/6J mice (old mice (20-24-month-old)) and “reduced” in the series with C57BL/6J mice (young mice (2-month-old), PBS control). Also, the NOR test performance entry is listed as “no additional deteriorating effect” in the series with C57BL/6J mice (old mice that had received gut microbiota from old mice (old+ABX+oFMT), FIG. 10G-H) and “significantly worse” in the series with C57BL/6J mice (young adult mice (8 weeks), versus vehicle, FIG. 10C-D). Besides, the blood-brain barrier crossing result in series [1] is recorded as “cross the blood-brain barrier”.
